Results as given in US20110218188A1, “SUBSTITUTED (PYRIDYL)-AZINYLAMINE DERIVATIVES AS FUNGICIDES” (priority 2008, published 2011).

Experiment: Measurement of logP values by HPLC on reversed phase columns (EEC directive 79/831 Annex V.A8)
Assay type: physicochemical
Conditions: pH 2.7

chromatographic logP	logP	SMILES
–	2.86	CCCN(C)C(=O)c1cc(-c2ncnc(Nc3cccc(OC(F)F)c3)n2)ccn1 [Example B299]
–	2.25	CN(C)C(=O)c1cc(-c2ncnc(Nc3cccc(OC(F)F)c3)n2)ccn1 [Example B300]
–	3.15	CC(C)CN(C)C(=O)c1cc(-c2ncnc(Nc3cccc(OC(F)F)c3)n2)ccn1 [Example B301]
–	2.78	CC(C)N(C)C(=O)c1cc(-c2ncnc(Nc3cccc(OC(F)F)c3)n2)ccn1 [Example B302]
–	2.94	COCC(C1CC1)N(C)C(=O)c1cc(-c2ncnc(Nc3cccc(OC(F)F)c3)n2)ccn1 (centres unmarked) [Example B303]
–	1.87	CCCN(C)C(=O)c1cc(-c2ncnc(Nc3cccc(NC(C)=O)c3)n2)ccn1 [Example B305]
–	1.4	CC(=O)Nc1cccc(Nc2ncnc(-c3ccnc(C(=O)N(C)C)c3)n2)c1 [Example B307]
–	2.1	CC(=O)Nc1cccc(Nc2ncnc(-c3ccnc(C(=O)N(C)CC(C)C)c3)n2)c1 [Example B308]
–	2.07	CN(CCC#N)C(=O)c1cc(-c2ncnc(Nc3ccccc3)n2)ccn1 [Example B310]
–	2.55	CCN(CC)C(=O)c1cc(-c2ncnc(Nc3ccccc3)n2)ccn1 [Example B311]
–	2.55	CCCN(C)C(=O)c1cc(-c2ncnc(Nc3ccccc3)n2)ccn1 [Example B312]
–	1.95	CN(C)C(=O)c1cc(-c2ncnc(Nc3ccccc3)n2)ccn1 [Example B314]
–	2.2	CCN(C)C(=O)c1cc(-c2ncnc(Nc3ccccc3)n2)ccn1 [Example B316]
–	2.45	CC(C)N(C)C(=O)c1cc(-c2ncnc(Nc3ccccc3)n2)ccn1 [Example B317]
–	3.78	CCN(CC)C(=S)c1cc(-c2ncnc(Nc3cccc(C(F)(F)F)c3)n2)ccn1 [Example B326]
–	3.37	CCN(CC)C(=S)c1cc(-c2ncnc(Nc3ccc(F)c(C(F)F)c3)n2)ccn1 [Example B327]

chromatographic logP	logP	SMILES
–	3.27	CCN(CC)C(=S)c1cc(-c2ncnc(Nc3cccc(C(F)F)c3)n2)ccn1 [Example B328]
–	3.29	CC(C)N(C)C(=S)c1cc(-c2ncnc(Nc3ccc(F)c(C(F)F)c3)n2)ccn1 [Example B329]
–	3.76	CN(CC1CC1)C(=S)c1cc(-c2ncnc(Nc3cccc(Cl)c3)n2)ccn1 [Example B330]
–	3.37	CN(CC1CC1)C(=S)c1cc(-c2ncnc(Nc3cccc(C(F)F)c3)n2)ccn1 [Example B331]
–	2.73	CN(C)C(=S)c1cc(-c2ncnc(Nc3ccc(F)c(C(F)F)c3)n2)ccn1 [Example B332]
–	3.04	CCN(C)C(=S)c1cc(-c2ncnc(Nc3ccc(F)c(C(F)F)c3)n2)ccn1 [Example B333]
–	3.4	CCCN(C)C(=S)c1cc(-c2ncnc(Nc3ccc(F)c(C(F)F)c3)n2)ccn1 [Example B334]
–	3.71	CC(C)CN(C)C(=S)c1cc(-c2ncnc(Nc3ccc(F)c(C(F)F)c3)n2)ccn1 [Example B335]
–	3.65	CCCN(C)C(=S)c1cc(-c2ncnc(Nc3cccc(Cl)c3)n2)ccn1 [Example B336]
–	3.23	CN(CC1CC1)C(=S)c1cc(-c2ncnc(Nc3ccccc3)n2)ccn1 [Example B337]
–	2.62	CCN(C)C(=S)c1cc(-c2ncnc(N(C(=O)COC)c3cccc(F)c3)n2)ccn1 [Example B338]
–	2.73	CCN(C)C(=S)c1cc(-c2ncnc(N(C(C)=O)c3cccc(F)c3)n2)ccn1 [Example B339]
–	2.82	CN(CCC#N)C(=S)c1cc(-c2ncnc(Nc3ccc(F)c(C(F)F)c3)n2)ccn1 [Example B340]
–	2.94	CCN(C)C(=S)c1cc(-c2ncnc(Nc3cccc(C(F)F)c3)n2)ccn1 [Example B341]
–	3.35	CN(CC(F)F)C(=S)c1cc(-c2ncnc(Nc3ccc(F)c(C(F)F)c3)n2)ccn1 [Example B342]
–	3.02	CN(CCC#N)C(=S)c1cc(-c2ncnc(Nc3cccc(Cl)c3)n2)ccn1 [Example B343]

Second part, the molecule before the results:

SMILES	chromatographic logP	logP
CCN(C)C(=S)c1cc(-c2ncnc(Nc3cccc(S(F)(F)(F)(F)F)c3)n2)ccn1 [Example B253, N-ethyl-N-methyl-4-(4-{[3-(pentafluoro-lambda^6-sulfanyl)phenyl]amino}-1,3,5-triazin-2-yl)pyridine-2-carbothioamide]	3.57	–
CCOc1cccc(Nc2ncnc(-c3ccnc(C(=O)N(C)CC)c3)n2)c1 [Example B254]	–	2.6
CCOc1cccc(Nc2ncnc(-c3ccnc(C(=S)N(C)CC)c3)n2)c1 [Example B255]	–	3.15
CCN(C)C(=O)c1cc(-c2ncnc(Nc3cccc(C(F)(F)F)c3)n2)ccn1 [Example B256]	–	2.86
CCN(C)C(=S)c1cc(-c2ncnc(Nc3cccc(C(F)(F)F)c3)n2)ccn1 [Example B257]	–	3.41
CCN(C)C(=O)c1cc(-c2ncnc(Nc3cccc(C(C)C)c3)n2)ccn1 [Example B258]	–	3.11
CCN(C)C(=S)c1cc(-c2ncnc(Nc3cccc(C(C)C)c3)n2)ccn1 [Example B259]	–	3.7
CCN(C)C(=O)c1cc(-c2ncnc(Nc3cccc(OC(F)(F)C(F)F)c3)n2)ccn1 [Example B260]	–	2.92
CCN(C)C(=S)c1cc(-c2ncnc(Nc3cccc(OC(F)(F)C(F)F)c3)n2)ccn1 [Example B261]	–	3.41
CN(CCC#N)C(=O)c1cc(-c2ncnc(Nc3cccc(OC(F)(F)F)c3)n2)ccn1 [Example B262]	–	2.8
CCN(CC)C(=O)c1cc(-c2ncnc(Nc3cccc(OC(F)(F)F)c3)n2)ccn1 [Example B263]	–	3.39
CCCN(C)C(=O)c1cc(-c2ncnc(Nc3cccc(OC(F)(F)F)c3)n2)ccn1 [Example B264]	–	3.37
CN(CC1CC1)C(=O)c1cc(-c2ncnc(Nc3cccc(OC(F)(F)F)c3)n2)ccn1 [Example B265]	–	3.48
CN(C)C(=O)c1cc(-c2ncnc(Nc3cccc(OC(F)(F)F)c3)n2)ccn1 [Example B266]	–	2.7
CC(C)CN(C)C(=O)c1cc(-c2ncnc(Nc3cccc(OC(F)(F)F)c3)n2)ccn1 [Example B267]	–	3.73
CCN(C)C(=O)c1cc(-c2ncnc(Nc3cccc(OC(F)(F)F)c3)n2)ccn1 [Example B268]	–	3
COCCN(C)C(=O)c1cc(-c2ncnc(Nc3cccc(OC(F)(F)F)c3)n2)ccn1 [Example B270]	–	2.86
CCN(C)C(=S)c1cc(-c2ncnc(Nc3cccc(OC(F)(F)F)c3)n2)ccn1 [Example B271]	–	3.57
COc1cccc(Nc2ncnc(-c3ccnc(C(=O)N(C)CCC#N)c3)n2)c1 [Example B272]	–	2.11
CCN(CC)C(=O)c1cc(-c2ncnc(Nc3cccc(OC)c3)n2)ccn1 [Example B273]	–	2.59
CCCN(C)C(=O)c1cc(-c2ncnc(Nc3cccc(OC)c3)n2)ccn1 [Example B274]	–	2.61
COc1cccc(Nc2ncnc(-c3ccnc(C(=O)N(C)CC4CC4)c3)n2)c1F [Example B275]	–	2.7
COc1cccc(Nc2ncnc(-c3ccnc(C(=O)N(C)C)c3)n2)c1 [Example B276]	–	2.01
COc1cccc(Nc2ncnc(-c3ccnc(C(=O)N(C)CC(C)C)c3)n2)c1 [Example B277]	–	2.90

SMILES	chromatographic logP	logP
CCN(C)C(=O)c1cc(-c2ncnc(Nc3cccc(OC)c3)n2)ccn1 [Example B278]	–	2.26
COc1cccc(Nc2ncnc(-c3ccnc(C(=O)N(C)C(C)C)c3)n2)c1 [Example B279]	–	2.51
COCCN(C)C(=O)c1cc(-c2ncnc(Nc3cccc(OC)c3)n2)ccn1 [Example B280]	–	2.14
CCN(C)C(=S)c1cc(-c2ncnc(Nc3cccc(OC)c3)n2)ccn1 [Example B281]	–	2.78
CCN(CC)C(=S)c1cc(-c2ncnc(Nc3cccc(OC)c3)n2)ccn1 [Example B282]	–	3.15
CCCN(C)C(=S)c1cc(-c2ncnc(Nc3cccc(OC)c3)n2)ccn1 [Example B283]	–	3.15
CN(CCC#N)C(=O)c1cc(-c2ncnc(Nc3cccc(C(F)F)c3)n2)ccn1 [Example B284]	–	2.25
CCN(CC)C(=O)c1cc(-c2ncnc(Nc3cccc(C(F)F)c3)n2)ccn1 [Example B285]	–	2.73
CCCN(C)C(=O)c1cc(-c2ncnc(Nc3cccc(C(F)F)c3)n2)ccn1 [Example B286]	–	2.73
CN(CC1CC1)C(=O)c1cc(-c2ncnc(Nc3cccc(C(F)F)c3)n2)ccn1 [Example B287]	–	2.82
CN(C)C(=O)c1cc(-c2ncnc(Nc3cccc(C(F)F)c3)n2)ccn1 [Example B288]	–	2.17
CC(C)CN(C)C(=O)c1cc(-c2ncnc(Nc3cccc(C(F)F)c3)n2)ccn1 [Example B289]	–	3.04
CC(C)N(C)C(=O)c1cc(-c2ncnc(Nc3cccc(C(F)F)c3)n2)ccn1 [Example B290]	–	2.65
CN(CCC#N)C(=O)c1cc(-c2ncnc(Nc3cccc(C#N)c3)n2)ccn1 [Example B291]	–	1.99
CCN(CC)C(=O)c1cc(-c2ncnc(Nc3cccc(C#N)c3)n2)ccn1 [Example B292]	–	2.45
CCCN(C)C(=O)c1cc(-c2ncnc(Nc3cccc(C#N)c3)n2)ccn1 [Example B293]	–	2.45
CN(C)C(=O)c1cc(-c2ncnc(Nc3cccc(C#N)c3)n2)ccn1 [Example B294]	–	1.88
CC(C)CN(C)C(=O)c1cc(-c2ncnc(Nc3cccc(C#N)c3)n2)ccn1 [Example B295]	–	2.73
CC(C)N(C)C(=O)c1cc(-c2ncnc(Nc3cccc(C#N)c3)n2)ccn1 [Example B296]	–	2.37
CN(CCC#N)C(=O)c1cc(-c2ncnc(Nc3cccc(OC(F)F)c3)n2)ccn1 [Example B297]	–	2.37
CCN(CC)C(=O)c1cc(-c2ncnc(Nc3cccc(OC(F)F)c3)n2)ccn1 [Example B298]	–	2.88
CN(CC1CC1)C(=O)c1cc(-c2ncnc(Nc3ccccc3)n2)ccn1 [Example B313]	–	2.65
CC(C)CN(C)C(=O)c1cc(-c2ncnc(Nc3ccccc3)n2)ccn1 [Example B315]	–	2.84
CCN(C)C(=S)c1cc(-c2ncnc(Nc3ccccc3)n2)ccn1 [Example B318]	–	2.73
